Data: publication PMC6515931, “The Efflux Mechanism of Fraxetin-O-Glucuronides in UGT1A9-Transfected HeLa Cells: Identification of Multidrug Resistance-Associated Proteins 3 and 4 (MRP3/4) as the Important Contributors” (Frontiers in Pharmacology, 2019)

Columns and labels:
HeLa1A9 cells = assay: Glucuronide excretion experiments in HeLa1A9 cells; type: cell-based, human; conditions: for excretion with elevation of the fraxetin concentration: fraxetin 5, 10 and 20 μM, HeLa1A9 cells
Description: The HeLa1A9 cells were pretreated and incubated with fraxetin solutions as reported previously ([Jiang et al., 2011]). Before assays, the HeLa1A9 cells were washed twice with prewarmed (37°C) Hank’s balanced salt solution (HBSS; pH = 7.4). […] At each time point (30, 60, 90, and 120 min), 200 μL of the culture supernatant from each well was collected as samples, and an equal volume of a loading media was used to replenish each well. Next, the collected samples were each mixed with 100 μL ice-cold acetonitrile. The supernatants were subjected to UHPLC analysis after centrifugation (10 min at 13800 × g).
(§1) In addition, the excretion rate of intracellular glucuronides was calculated using Equ. 2. Fraction metabolized or the fmet value was defined as the fraction of a dose metabolized based on Equ. 3. The fmet value was regarded as the more appropriate parameter to reflect the extent of drug metabolism in intact cells in the presence of a transporter–enzyme interplay.
(§2) (2) Excretion rate=VdC(excretedglucuronide)/dt
(§3) where V is the volume of the incubation medium, C is the excreted cumulative concentration of glucuronides, and t denotes the incubation time. Here, dC(excreted glucuronide)/dt describes the changes in glucuronide levels with time.

UGT1A9 [1] = biological target: T1, UGT1A9 (Homo sapiens, UniProt O60656); assay: Inhibition of fraxetin-O-glucuronide formation by selective UGT1A9 inhibitors; type: biochemical; parameters: purchased Corning Biosciences; conditions: fraxetin 4 and 20 μM; magnolol 1 μM, niflumic acid 10 μM, androsterone 10 μM
T1 sequence (O60656 26-530): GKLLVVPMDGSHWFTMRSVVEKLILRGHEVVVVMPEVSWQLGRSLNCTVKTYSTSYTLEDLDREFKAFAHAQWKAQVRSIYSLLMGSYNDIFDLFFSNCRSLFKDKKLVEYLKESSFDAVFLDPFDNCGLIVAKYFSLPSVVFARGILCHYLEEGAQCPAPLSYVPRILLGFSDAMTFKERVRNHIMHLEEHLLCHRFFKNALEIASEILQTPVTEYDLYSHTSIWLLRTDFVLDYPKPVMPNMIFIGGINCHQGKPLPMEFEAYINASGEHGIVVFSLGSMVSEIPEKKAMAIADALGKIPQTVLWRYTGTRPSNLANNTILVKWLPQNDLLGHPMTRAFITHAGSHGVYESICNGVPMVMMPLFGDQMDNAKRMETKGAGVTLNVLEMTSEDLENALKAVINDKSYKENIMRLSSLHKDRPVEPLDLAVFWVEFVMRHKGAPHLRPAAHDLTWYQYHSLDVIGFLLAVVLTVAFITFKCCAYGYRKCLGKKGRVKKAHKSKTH
Description: (§4) The incubation system was slightly modified on the basis of a previously published article ([Qin et al., 2018a]). […] After preincubation at 37°C for 5 min, UDPGA (3.5 mM) was added to the reaction system, and the mixture was incubated for another 30 min. These reactions were terminated by the addition of an equal volume of ice-cold acetonitrile. The mixed samples were centrifuged at 13800 × g for 10 min, and the supernatant was analyzed by ultra-high-performance liquid chromatography (UHPLC). All the experiments were conducted in triplicate.
Other detailed operations were the same as described above.

UGT1A9 [2] = biological target: T1, UGT1A9
Description: as §4
The enzyme kinetic parameters were obtained by fitting appropriate kinetic models to the experimental data in GraphPad Prism V5 software (San Diego, CA, United States). The best model was selected based on visual inspection of the Eadie–Hofstee plots ([Qin et al., 2018b]). In brief, if the Eadie–Hofstee plot was linear, formation rates (V) of glucuronides at different substrate concentrations (C) were fitted to the standard equations (1): […]
Where Km is the Michaelis–Menten constant, and Vmax is the maximum rate of glucuronidation. The intrinsic clearance (CLint) was computed as Vmax/Km.

MRP4 = biological target: T2, MRP4 (Homo sapiens, UniProt O15439); assay: shRNA-mediated partial silencing of MRP4 in HeLa1A9 cells, glucuronide excretion; type: cell-based; conditions: fraxetin 10 μM; for decreased excretion of glucuronide: HeLa1A9 cells
T2 construct: BCRP, MRP1, MRP3, and MRP4 were detected in both wild-type HeLa and HeLa1A9 cells; endogenous in cells
T2 sequence (O15439 1-1325): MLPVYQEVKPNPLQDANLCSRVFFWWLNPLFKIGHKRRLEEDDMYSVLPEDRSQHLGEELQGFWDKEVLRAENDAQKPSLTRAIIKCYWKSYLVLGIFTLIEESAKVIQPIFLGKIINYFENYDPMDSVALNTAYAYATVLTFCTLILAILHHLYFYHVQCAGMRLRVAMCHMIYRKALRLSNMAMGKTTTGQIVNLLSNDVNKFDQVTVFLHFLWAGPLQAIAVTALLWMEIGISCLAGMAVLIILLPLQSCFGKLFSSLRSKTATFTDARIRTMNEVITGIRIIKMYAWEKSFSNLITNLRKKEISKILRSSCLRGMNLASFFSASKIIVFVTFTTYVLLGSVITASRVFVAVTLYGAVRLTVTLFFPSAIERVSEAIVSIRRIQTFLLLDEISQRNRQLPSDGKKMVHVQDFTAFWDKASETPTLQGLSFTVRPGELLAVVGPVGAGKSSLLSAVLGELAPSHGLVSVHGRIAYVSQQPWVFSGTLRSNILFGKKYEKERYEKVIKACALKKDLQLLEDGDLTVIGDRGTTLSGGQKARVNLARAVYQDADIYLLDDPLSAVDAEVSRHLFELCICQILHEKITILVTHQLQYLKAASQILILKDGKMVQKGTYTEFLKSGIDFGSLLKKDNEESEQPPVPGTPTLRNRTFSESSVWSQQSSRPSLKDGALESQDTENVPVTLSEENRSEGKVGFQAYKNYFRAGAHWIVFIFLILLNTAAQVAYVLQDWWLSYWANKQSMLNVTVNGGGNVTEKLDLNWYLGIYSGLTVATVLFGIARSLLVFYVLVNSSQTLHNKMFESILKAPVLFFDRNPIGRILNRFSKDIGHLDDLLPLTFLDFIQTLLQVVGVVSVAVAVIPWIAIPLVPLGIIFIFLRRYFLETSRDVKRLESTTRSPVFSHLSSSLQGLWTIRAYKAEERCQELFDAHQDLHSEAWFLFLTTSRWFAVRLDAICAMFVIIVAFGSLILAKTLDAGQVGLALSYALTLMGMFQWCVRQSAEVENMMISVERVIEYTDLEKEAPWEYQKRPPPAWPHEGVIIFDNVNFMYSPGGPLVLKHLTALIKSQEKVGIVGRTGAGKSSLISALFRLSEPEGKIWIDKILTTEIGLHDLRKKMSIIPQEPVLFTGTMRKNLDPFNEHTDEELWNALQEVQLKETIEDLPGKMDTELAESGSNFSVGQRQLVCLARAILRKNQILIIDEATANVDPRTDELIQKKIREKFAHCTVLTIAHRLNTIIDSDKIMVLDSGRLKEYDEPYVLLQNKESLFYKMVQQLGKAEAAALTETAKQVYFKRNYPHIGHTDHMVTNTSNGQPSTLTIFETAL
Description: (§5) The HeLa1A9 cells were pretreated and incubated with fraxetin solutions as reported previously ([Jiang et al., 2011]). Before assays, the HeLa1A9 cells were washed twice with prewarmed (37°C) Hank’s balanced salt solution (HBSS; pH = 7.4). After that, fraxetin (10 μM) dissolved in 2 mL of HBSS was incubated with the HeLa1A9 cells. At each time point (30, 60, 90, and 120 min), 200 μL of the culture supernatant from each well was collected as samples, and an equal volume of a loading media was used to replenish each well. Next, the collected samples were each mixed with 100 μL ice-cold acetonitrile. The supernatants were subjected to UHPLC analysis after centrifugation (10 min at 13800 × g).
(§6) In glucuronide excretion assays, biological inhibition mainly including shRNA-mediated partial silencing of BCRP and MRPs in HeLa cells was usually performed to evaluate the role of each efflux transporter ([Quan et al., 2015]; [Sun et al., 2015]; [Qin et al., 2018a]). Established shRNA_BCRP, shRNA_MRP1, shRNA_MRP3, and shRNA_MRP4 plasmids were […] transfected into HeLa1A9 cells to develop the stably shRNA-transfected cell lines, named HeLa1A9-BCRP-shRNA cells, HeLa1A9-MRP1-shRNA, HeLa1A9-MRP3-shRNA, and HeLa1A9-MRP4-shRNA cells, respectively. After transfection for 2 days, these engineered HeLa1A9 cells were subjected to fraxetin-O-glucuronide excretion experiments. The control scrambled shRNA served as a negative control.
as §1, §2
(§7) (3) fmet=excreted glucuronide+intracellular glucuronide/dosed aglycone
as §3

MRP3 = biological target: T3, MRP3 (Homo sapiens, UniProt O15438); assay: shRNA-mediated partial silencing of MRP3 in HeLa1A9 cells, glucuronide excretion; type: cell-based; conditions: fraxetin 10 μM; for decrease in fraction metabolized (fmet; overall cellular glucuronidation) / reduction in excretion rate / reduction in excreted glucuronide: MRP3 knockdown; for reduction in excreted glucuronide: HeLa1A9 cells; for elevation of intracellular glucuronide level: MRP3 silencing
T3 construct: BCRP, MRP1, MRP3, and MRP4 were detected in both wild-type HeLa and HeLa1A9 cells; endogenous in cells
T3 sequence (O15438 whole entry): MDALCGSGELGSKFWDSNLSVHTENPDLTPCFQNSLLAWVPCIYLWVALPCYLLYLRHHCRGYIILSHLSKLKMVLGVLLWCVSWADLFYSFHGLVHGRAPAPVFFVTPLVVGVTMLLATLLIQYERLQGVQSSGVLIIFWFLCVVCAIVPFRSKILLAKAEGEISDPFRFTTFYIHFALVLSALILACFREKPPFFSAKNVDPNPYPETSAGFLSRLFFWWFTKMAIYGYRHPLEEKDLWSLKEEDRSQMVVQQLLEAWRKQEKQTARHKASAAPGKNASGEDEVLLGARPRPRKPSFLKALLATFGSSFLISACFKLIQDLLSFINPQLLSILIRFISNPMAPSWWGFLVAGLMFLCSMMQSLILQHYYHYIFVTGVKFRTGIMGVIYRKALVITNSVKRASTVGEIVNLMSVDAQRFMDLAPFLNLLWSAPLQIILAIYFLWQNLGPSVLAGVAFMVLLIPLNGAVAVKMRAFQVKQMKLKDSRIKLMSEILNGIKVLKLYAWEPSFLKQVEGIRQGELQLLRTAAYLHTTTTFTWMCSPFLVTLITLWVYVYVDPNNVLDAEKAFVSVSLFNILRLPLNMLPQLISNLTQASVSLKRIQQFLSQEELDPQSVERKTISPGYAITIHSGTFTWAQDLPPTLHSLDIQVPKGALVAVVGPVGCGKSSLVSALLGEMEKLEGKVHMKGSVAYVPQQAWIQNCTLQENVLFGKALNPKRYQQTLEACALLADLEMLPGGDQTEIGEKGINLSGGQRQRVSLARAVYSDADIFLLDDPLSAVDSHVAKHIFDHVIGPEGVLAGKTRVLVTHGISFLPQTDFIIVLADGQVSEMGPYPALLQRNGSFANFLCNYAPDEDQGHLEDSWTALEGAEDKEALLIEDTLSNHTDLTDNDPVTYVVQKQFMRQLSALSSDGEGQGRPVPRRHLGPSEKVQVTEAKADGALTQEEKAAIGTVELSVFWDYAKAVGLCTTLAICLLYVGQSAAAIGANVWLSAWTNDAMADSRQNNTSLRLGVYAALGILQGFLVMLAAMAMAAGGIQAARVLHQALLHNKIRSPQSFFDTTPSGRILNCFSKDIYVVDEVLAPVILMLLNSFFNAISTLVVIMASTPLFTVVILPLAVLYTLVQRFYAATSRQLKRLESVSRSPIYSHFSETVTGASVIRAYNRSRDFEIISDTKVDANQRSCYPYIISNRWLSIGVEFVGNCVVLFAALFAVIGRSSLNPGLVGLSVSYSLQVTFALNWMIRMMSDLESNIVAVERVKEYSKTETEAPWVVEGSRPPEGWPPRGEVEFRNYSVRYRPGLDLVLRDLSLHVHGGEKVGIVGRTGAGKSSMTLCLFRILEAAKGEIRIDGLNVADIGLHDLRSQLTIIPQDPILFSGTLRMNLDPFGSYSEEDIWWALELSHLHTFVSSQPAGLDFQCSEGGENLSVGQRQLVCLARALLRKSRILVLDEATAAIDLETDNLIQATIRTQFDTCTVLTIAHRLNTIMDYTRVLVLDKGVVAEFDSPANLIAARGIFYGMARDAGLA
Description: as §5, §6, §1, §2, §7, §3

[3] = substrate: COc1cc2ccc(=O)oc2c(O)c1O; assay: cells, lysate or membranes named; conditions: UGT1A9 enzyme, pH 7.4, 37.0 °C
[4] = substrate: CC(C)c1cccc(C(C)C)c1O; assay: cells, lysate or membranes named; conditions: other: metabolite propofol-G, pH 7.4, 37.0 °C
[5] = substrate: COc1cc2ccc(=O)oc2c(O)c1O; assay: Glucuronidation kinetics by HeLa1A9 cell lysate; type: in vitro ADME, human
Description: HeLa1A9 cells were grown in 10 cm dishes for 3 to 4 days and then were washed and harvested in 50 mM Tris buffer (pH = 7.4). The collected cells were sonicated using a tight-fitting Dounce homogenizer in an ice-cold water bath (4°C). […] Next, the cell lysates were centrifuged at 4°C (13800 × g for 10 min). The supernatant to be used in the UGT glucuronidation activity assay was collected, and its protein concentration was measured by the bicinchoninic acid assay (BCA; Beyotime, Shanghai, China).

[6] = other: metabolite G1, pH 7.4, 37.0 °C
[7] = other: metabolite G2, pH 7.4, 37.0 °C

Row | Molecule | Km (UGT1A9 [2]) [µM] | decrease in fraction metabolized (fmet) (MRP4) [%] | elevation of intracellular glucuronide (MRP4) [%] | reduction in excretion rate (MRP4) [%] | decreased excretion of glucuronide (MRP4) | decrease in fraction metabolized (fmet; overall cellular glucuronidation) (MRP3) [%] | reduction in excretion rate (MRP3) [%] | reduction in excreted glucuronide (MRP3) | elevation of intracellular glucuronide level (MRP3) [%] | excretion with elevation of the fraxetin concentration (HeLa1A9 cells) | other results
1 | CC(C)c1cccc(C(C)C)c1O[C@@H]1O[C@H](C(=O)O)[C@@H](O)[C@H](O)[C@H]1O [propofol-O-glucuronide] |  |  |  |  |  |  |  |  |  |  | excretion rate (HeLa1A9 cells; propofol 40 μM incubated with HeLa1A9 cells): 0.053 pmol/min; excretion rate (HeLa1A9 cells; propofol 80 μM incubated with HeLa1A9 cells): 0.070 pmol/min
2 | C=CCc1ccc(O)c(-c2cc(CC=C)ccc2O)c1 [magnolol] |  |  |  |  |  |  |  |  |  |  | effect on formation of G1 and G2 (UGT1A9 [1]): significantly inhibited
3 | COc1cc2ccc(=O)oc2c(O)c1O[C@@H]1O[C@H](C(=O)O)[C@@H](O)[C@H](O)[C@H]1O [G2, fraxetin-7-O-glucuronide] | 8 to 16 | 23.1 | 52.4 | 32.3 | 33.0–42.4% | 18.6 | 21.1 | 15.1–31.9% | 45.4 | markedly increased | 
4 | COc1cc2ccc(=O)oc2c(O[C@@H]2O[C@H](C(=O)O)[C@@H](O)[C@H](O)[C@H]2O)c1O [G1, fraxetin-8-O-glucuronide] | 8 to 16 | 22.7 | 42.0 | 34.8 | 33.6–51.1% | 24.1 | 29.1 | 19.8–39.4% | 30.2 | markedly increased | 
5 | UGT1A9 (Homo sapiens) (protein) GKLLVVPMDGSHWFTMRSVVEKLILRGHEVVVVMPEVSWQLGRSLNCTVKTYSTSYTLEDLDREFKAFAHAQWKAQVRSIYSLLMGSYNDIFDLFFSNCRSLFKDKKLVEYLKESSFDAVFLDPFDNCGLIVAKYFSLPSVVFARGILCHYLEEGAQCPAPLSYVPRILLGFSDAMTFKERVRNHIMHLEEHLLCHRFFKNALEIASEILQTPVTEYDLYSHTSIWLLRTDFVLDYPKPVMPNMIFIGGINCHQGKPLPMEFEAYINASGEHGIVVFSLGSMVSEIPEKKAMAIADALGKIPQTVLWRYTGTRPSNLANNTILVKWLPQNDLLGHPMTRAFITHAGSHGVYESICNGVPMVMMPLFGDQMDNAKRMETKGAGVTLNVLEMTSEDLENALKAVINDKSYKENIMRLSSLHKDRPVEPLDLAVFWVEFVMRHKGAPHLRPAAHDLTWYQYHSLDVIGFLLAVVLTVAFITFKCCAYGYRKCLGKKGRVKKAHKSKTH |  |  |  |  |  |  |  |  |  |  | Km ([3]; other: metabolite G1): 16 ± 2 µM; Vmax ([3]; other: metabolite G1): 0.00292 µmol/min/mg; Vmax/Km ([3]; other: metabolite G1): 180 µL/min/mg; Km ([3]; other: metabolite G2): 10 ± 1 µM; Vmax ([3]; other: metabolite G2): 0.00144 µmol/min/mg; Vmax/Km ([3]; other: metabolite G2): 150 µL/min/mg; Km ([4]; UGT1A9 enzyme): 53 ± 6 µM
6 | HeLa1A9 cell lysate (Homo sapiens) (protein, expressed in transfected cells; host or cells: HeLa cells stably transfected with the UGT1A9 gene (HeLa1A9); lysate supernatant) GKLLVVPMDGSHWFTMRSVVEKLILRGHEVVVVMPEVSWQLGRSLNCTVKTYSTSYTLEDLDREFKAFAHAQWKAQVRSIYSLLMGSYNDIFDLFFSNCRSLFKDKKLVEYLKESSFDAVFLDPFDNCGLIVAKYFSLPSVVFARGILCHYLEEGAQCPAPLSYVPRILLGFSDAMTFKERVRNHIMHLEEHLLCHRFFKNALEIASEILQTPVTEYDLYSHTSIWLLRTDFVLDYPKPVMPNMIFIGGINCHQGKPLPMEFEAYINASGEHGIVVFSLGSMVSEIPEKKAMAIADALGKIPQTVLWRYTGTRPSNLANNTILVKWLPQNDLLGHPMTRAFITHAGSHGVYESICNGVPMVMMPLFGDQMDNAKRMETKGAGVTLNVLEMTSEDLENALKAVINDKSYKENIMRLSSLHKDRPVEPLDLAVFWVEFVMRHKGAPHLRPAAHDLTWYQYHSLDVIGFLLAVVLTVAFITFKCCAYGYRKCLGKKGRVKKAHKSKTH |  |  |  |  |  |  |  |  |  |  | Km [5, 6]: 13 ± 2 µM; Vmax [5, 6]: 0.00011 ± 5e-06 µmol/min/mg; Vmax/Km [5, 6]: 9 ± 1 µL/min/mg; Km [5, 7]: 8 ± 1 µM; Vmax [5, 7]: 4.2e-05 ± 2e-06 µmol/min/mg; Vmax/Km [5, 7]: 5 ± 1 µL/min/mg; Km ([4]; HeLa1A9 cell lysate): 59 ± 13 µM
